Measurements from US5474757A, “Prevention of acetaminophen overdose toxicity with organosulfur compounds” (priority 1992, dated 1995).
“Also recorded” adds a separate entry of the source. Where two headings read alike, the source gives them in different places.

Legend:
acetaminophen overdose = conditions: cited from earlier work; for protective action: animals; for protection in acetaminophen overdose: Prescott et al.
[1] = system: acetaminophen-induced hepatotoxicity; test: animal or person
Source text: Blood samples were obtained from the jugular vein of CO2 -anesthetizedanimals. The blood was allowed to clot at room temperature and serum was separated by centrifugation. […] Biochem. Biophys.
Randomly-selected samples of the major hepatic lobe were fixed in 10% buffered formalin for histological evaluation. Samples were subsequently embedded in Paraplast (Fisher Scientific) and sectioned at 6 μm on a rotary microtome. Tissue sections were stained with hematoxylin-eosine-phloxine for examination. Extent of tissue damage was determined using a Presage CV-6 Image Analysis System (Advanced Imaging Concepts, Inc.). Images of randomly-selected slides (3 slides/animal, 2-3 animals/group) containing full cross sections of the major hepatic lobe were projected onto a computer screen and the image captured. The areas of damage were then outlined on the screen and the areas quantated using interactive software. The area of damage was shown as a percentage of the total hepatic area for each section. All determinations were made without knowledge of treatment group.
Data were analyzed by the Newman-Keuls multiple comparison procedure on the rank score analysis.
All experiments were replicated at least once.
As a Comparative Example, 300 mg/kg N-acetylcysteine was also administered immediately after administration of 0.2 g/kg acetaminophen.
As a Comparative Example, 300 mg/kg N-acetylcysteine was also administered 1 hour after administration of 0.2 g/kg acetaminophen.

hepatotoxicity = conditions: cited from earlier work
[2] = system: acetaminophen-induced hepatotoxicity; test: Protective effect against acetaminophen overdose in rats (serum GPT, LDH, liver damage); format: in vivo, rat (male Fisher 344)
Procedure: Brady et al., "Effect of […] […] Biochem. […] Extent of tissue damage was determined using a […]-6 Image Analysis System (Advanced Imaging Concepts, Inc.). […] All determinations were made without knowledge of treatment group. […] All experiments were replicated at least once.

[3] = orally less than 24 hours after the overdose
[4] = APAP only, 0.2 g/kg oral, fasted mice, 24 h
[5] = 300 mg/kg oral, 1 hour after APAP 0.2 g/kg
[6] = 300 mg/kg oral, immediately after APAP 0.2 g/kg
[7] = 50 mg/kg oral, 3 hours after APAP 0.4 g/kg
[8] = 600 mg/kg oral, 1 hour after APAP 0.4 g/kg
[9] = 600 mg/kg oral, 6 hours after APAP 0.4 g/kg

N[C@@H](CS)C(=O)O [L-cysteine]
protective action (acetaminophen overdose): protective action | effectiveness in acetaminophen overdose (acetaminophen overdose; [3]): effective

CC(=O)Nc1ccc(O)cc1 [APAP, N-acetyl-p-aminophenol, reference compound]
Extent of liver damage [1, 4]: 26-40% | LDH [1, 4]: 17227 ± 3464 U/L | Survival [1, 4]: 2/5 | increase of serum LDH ([1]; acetaminophen 0.2 g/kg, mice): 20 fold | liver histology ([1]; acetaminophen 0.2 g/kg, surviving mice (FIG. 2B)): hepatocellular necrosis; also recorded: typical centrilobular degeneration, necrosis, and inflammation | plasma acetaminophen level always associated with hepatic damage (hepatotoxicity; 4 hours after ingestion): greater than 300 mcg/ml | plasma acetaminophen level always associated with hepatic damage (hepatotoxicity; 12 hours after ingestion): greater than 50 mcg/ml | fatalities (hepatotoxicity; acute overdoses of less than 15 g): rare | single dose after which hepatotoxicity may occur (hepatotoxicity; in vivo): 7.5 to 10 g | plasma acetaminophen half-life above which hepatic necrosis is likely (hepatotoxicity; overdose): exceeds 4 hours

CC(=O)N[C@@H](CS)C(=O)O [N-AC, N-acetyl-L-cysteine, reference compound]
protective action (acetaminophen overdose): protective action | effectiveness in acetaminophen overdose (acetaminophen overdose; given orally): effective | effectiveness in acetaminophen overdose (acetaminophen overdose; [3]): effective | Extent of liver damage [1, 5]: 10-17% | GPT [1, 5]: 131 ± 68 U/L | LDH [1, 5]: 1140 ± 96 U/L | Survival [1, 5]: 5/5 | Extent of liver damage [1, 6]: 0% | GPT [1, 6]: 56 ± 4 U/L | LDH [1, 6]: 629 ± 124 U/L | Survival [1, 6]: 5/5 | protection against hepatotoxicity ([1]; 300 mg/kg, 1 hour after acetaminophen, mice): partial protection | protection against acetaminophen toxicity ([1]; 300 mg/kg, immediately after acetaminophen, mice): protected against acetaminophen toxicity | effectiveness against acetaminophen toxicity ([1]; 3 hours after acetaminophen dosing, mice (data not shown)): neither DASO2, N-AC nor the combination treatment was effective | Extent of liver damage [2, 7]: 17-38% | GPT [2, 7]: 135 ± 40 U/L | prevention of liver necrosis and GPT elevation ([2]; 50 mg/kg, 3 hours after APAP, rats): partially prevented the development of liver necrosis and the elevation of the GPT level | Extent of liver damage [2, 8]: 1-5% | GPT [2, 8]: 47 ± 4 U/L | LDH [2, 8]: 174 ± 35 U/L | Extent of liver damage [2, 9]: 13-28% | GPT [2, 9]: 153 ± 62 U/L | LDH [2, 9]: 269 ± 92 U/L | protection against liver toxicity ([2]; 600 mg/kg, 1 hr after APAP, compared with DASO2 50 mg/kg, rats): as effective as DASO2 (50 mg/kg) in preventing liver toxicity | protection ([2]; 600 mg/kg, 6 hours after APAP, rats): partial protection | dosage needed for similar protection relative to DAS / DASO2 ([2]; N-acetylcysteine dose versus DAS and DASO2 dose): more than ten-fold higher

NCCS [cysteamine]
protection in acetaminophen overdose (acetaminophen overdose): some protection

CSCC[C@H](N)C(=O)O [L-methionine]
protection in acetaminophen overdose (acetaminophen overdose): some protection | protective action (acetaminophen overdose): protective action | effectiveness in acetaminophen overdose (acetaminophen overdose; [3]): effective
